# Experimental data: US20090069324A1, “CHEMICAL INHIBITORS OF BFL-1 AND RELATED METHODS” (The Burnham Institute, priority 2007, published 2009)
# pIC50: −log10 of the molar value. Values joined by “and” are separate entries in the source; they are usually repeats but may differ in a detail not shown here. Equal entries are not always repeated. “Also recorded” adds a separate entry of the source.
# Key:
# [1] = tested on: RS11846 B-lymphoma cell line; assay: Induction of apoptosis, Annexin-FITC/PI flow cytometry; assay type: cell-based, human; conditions: 16 hours incubation
# Description: To test compounds for their ability to induce apoptosis in cancer cells, the RS11846 B-lymphoma cell line was used. The RS11846 cell line was established from a patient with an aggressive form of diffuse large cell lymphoma, representing a subset of B-lymphoma in humans. This type of human B-lymphoma is characterized by infiltration beyond lymphoid compartment (bone marrow, spleen, lymph nodes, liver and etc.), typically infiltrate into ovary (in female), testis (in male), spinal cord and CNS (central nervous system) therefore given nomenclature of “diffuse.” Histo-pathologically, the RS11846 cell line is diffuse large cell B-lymphoma, thus representing an immature, aggressive form of the disease. […] Therefore, this cell line is suitable for examining biological effects of Bfl-1 antagonists concerned in this patent application.
# For the assay to test compounds for their ability to induce apoptosis, the RS11846 B-lymphoma cell line was cultured in RPMI-1640 supplemented by 10% FBS and Penicillin/Streptomycin. The cells were seeded at cell density of half a million cells per ml, and incubation time was 16 hours. In the assay, cell viability was analyzed by the Annexin-FITC/PI method, using flow cytometry, or FACS analysis. Viable cells were defined by Annexin-FITC-negative, PI-negative. Compensation was done using conventional methods and using the Flo-jo program.
# IC50 (50% killing) was determined using an extrapolation method based on the finding that biological response is almost linear near at 50% inhibition point when plotted against semi-log scale on X-axis. See, D. J. Finney, Statistical Method in Biological Assay, Griffin, London, 1978. Briefly, % viability was plotted on Y-axis on an ordinary scale, while drug concentration was plotted on X-axis on a semi-log scale. The actual 50% inhibition point is on the line between left-bracket (higher than 50% inhibition) and right bracket (lower than 50% inhibition), and it can be extrapolated on the line on a semi-log scale. Thus, IC50 was extrapolated via left bracketing and right bracketing, and extrapolated on a semi-log scale, and then, re-converted back to an ordinary scale.
# [2] = biological target: T1, Bfl-1 (Homo sapiens, UniProt Q16548); assay: Bfl-1 fluorescence polarization assay (FPA/FP), competition with FITC-Bid BH3 peptide; assay type: binding; conditions: for Bfl-1 FP assay, activity in words: Bfl-1/FITC-Bid
# T1 construct: lacking their C-terminal transmembrane domains (approximately last 20 amino-acids); made in house; host or cells: XL-1 Blue cells (E. coli), pGEX 4T-1
# T1 sequence (Q16548 1-155 limits assumed): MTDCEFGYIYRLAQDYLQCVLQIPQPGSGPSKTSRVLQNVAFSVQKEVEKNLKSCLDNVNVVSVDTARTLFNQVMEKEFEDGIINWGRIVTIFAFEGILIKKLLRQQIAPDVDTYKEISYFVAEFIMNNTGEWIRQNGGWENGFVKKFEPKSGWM
# Procedure: Fluorescence polarization assays (FPA). To determine the binding affinity of anti-apoptotic Bcl-2 polypeptides to FITC-conjugated Bid BH3 peptide, fluorescence polarization assays (FPAs) were performed according to published procedures (Zhai et al., Biochem. J. 376:229-236 (2003)). […] Fluorescence polarization was measured after 10 min using an Analyst™ AD Assay Detection System (LJL Biosystem, Sunnyvale, Calif.) in phosphate-buffered saline (PBS) (pH 7.4). The IC50 determinations were performed using GraphPad Prism software (GraphPad, Inc., San Diego, Calif.).
# Competition assays. Using the same procedure outlined above, 100 nM of GST-Bfl-1 protein were incubated with the compounds at 50 μM concentration for 30 min. Then, 5 nM of FITC-Bid BH3 peptide was added. Fluorescence polarization was measured after 10 min. […]
# [3] = biological target: T1, Bfl-1; assay: Bfl-1 TR-FRET assay (FITC-Bid, Tb-anti-GST antibody); assay type: binding; conditions: for Bfl-1 TR-FRET assay, activity in words: Bfl-1/FITC-Bid
# Procedure: TR-FRET assay. For confirmation of FPA results, a TR-FRET assay utilizing terbium- (Tb-) labeled anti-GST antibody (Th-Ab) was developed. […] The reaction mixture was preincubated for 1 h, and TR-fluorescence (TRF) was measured on an M5 plate reader (Molecular Devices) using excitation at 340 nm and emission at […]. The measurements were averaged from 5 readings during 1 ms after an initial delay 0.1 ms. TR-FRET signal was calculated as the ratio of TR-Fluorescence at 520 nm to TR-Fluorescence at […].
# For Bfl-1 TR-FRET assays, Bfl-1 protein and FITC-Bid peptide (FITC-Ahx-[…]) (SEQ ID NO: 1) were utilized. Terbium-anti-GST antibody (Tb-anti-GST Ab) was obtained from Invitrogen (San Diego Calif.). The assay buffer contained 25 mM Bis-Tris, pH 7.0, 1 mM TCEP, and 0.005% Tween 20. The Tb-Ab buffer contained 2.5 nM Tb-anti-GST antibody in assay buffer. The Bfl-1/Th-Ab working solution contained 5 nM Bfl-1 in Th-Ab assay buffer. The solution was prepared fresh and kept on ice prior to use. The FITC-Bid working solution contained 5.6 nM FITC-Bid in assay buffer.
# For the Bfl-1 TR-FRET dose-response screening protocol, dose-response curves contained 10 concentrations of compounds obtained using 2-fold serial dilution. Compounds were serially diluted in 100% DMSO, and then diluted with water to 10% final DMSO concentration. A 4 μl aliquot of compounds in 10% DMSO was transferred into columns 3-22 of Greiner 384-well white small-volume plates. Columns 1-2 and 23-24 contained 4 μL of 10% DMSO.
# Columns 1-2 were reserved for positive controls, and 8 μL of Th-Ab buffer was added using a WellMate bulk dispenser (Matrix). An aliquot of 8 μL of Bfl-1/Th-Ab working solution was added to columns 3-24 of Greiner 384 well white plates using a WellMate bulk dispenser (Matrix). Columns 23-24 represented negative control wells. Plates were incubated for 1 h at 4° C. An 8 μL aliquot of freshly prepared FITC-Bid working solution was added to the whole plate using WellMate bulk dispenser (Matrix). Plates were incubated for 4 h at room temperature protected from direct light. Fluorescence was measured on the M5 plate reader (excitation: 340 nm, emission: 490 and 520 nm, cutoff: 475 and 515 nm, respectively) in Time Resolved (TR) mode with signal integrated for 1 ms after initial delay of 0.1 ms. TR-FRET signal was calculated as the ratio of TR-Fluorescence at 520 nm to TR-Fluorescence at 490 nm. Data analysis was performed using a sigmoidal dose-response equation through non-linear regression.
# [4] = biological target: T2, Bcl-2 (Homo sapiens, UniProt P10415); assay: Bcl-2/FITC-Bim FPA selectivity assay; assay type: binding
# T2 construct: lacking their C-terminal transmembrane domains (approximately last 20 amino-acids); GST (N); made in house; host or cells: XL-1 Blue cells (E. coli), pGEX 4T-1
# Description: (§1) This example illustrates assays for determining the selectivity of chemical inhibitors for Bfl-1. Bfl-1, as with other Bcl-2 family proteins, participates in a very complex and intricate network of interactions with other representatives of the family. Therefore, two selectivity assays involving family members Bcl-2 and Bcl-B were developed.
# (§2) For Bcl-2, a FITC-conjugated peptide corresponding to the BH3 domain of Bim was used. For Bcl-B, a FITC-conjugated peptide corresponding to a fragment of the TR3/Nur77 protein shown to bind this member of the Bcl-2 family was used.
# (§3) Probe specificity for target or for cell-based/phenotypic assays data can be determined in orthogonal cell-based assay systems that address the pathway of interest. For example, compounds were tested in Bfl-1/FITC-Bid FPA and TR-FRET assays (FIGS. 7A and 7B, respectively), as well as Bcl-2/FITC-Bim FPA (FIG. 7C) and Bcl-B/FITC-TR3-R8 FPA (FIG. 7D) assays. Data represent concentration in μM x-axis) vs % displacement (y-axis).
# [5] = biological target: T3, Bcl-B (Homo sapiens, UniProt Q9HD36); assay: Bcl-B/FITC-TR3-R8 FPA selectivity assay; assay type: binding
# T3 construct: lacking their C-terminal transmembrane domains (approximately last 20 amino-acids); GST (N); made in house; host or cells: XL-1 Blue cells (E. coli), pGEX 4T-1
# T3 sequence (Q9HD36 1-182 limits assumed): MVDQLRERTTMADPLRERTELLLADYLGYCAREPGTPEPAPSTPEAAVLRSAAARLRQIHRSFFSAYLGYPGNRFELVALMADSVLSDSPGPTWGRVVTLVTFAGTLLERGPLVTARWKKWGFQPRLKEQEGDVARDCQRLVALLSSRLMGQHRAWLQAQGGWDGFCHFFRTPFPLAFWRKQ
# Description: as §1, §2, §3
# [6] = Solubility
# Procedure: Compounds were screened for inhibitory activity of Bfl-1 essentially as described in Example 1, and including a 1 h incubation of Bfl-1 in the presence of compounds and a 4 h incubation after the subsequent addition of the fluorescent probe. […] The assay was screened against the entire NIH small molecule library, which at the time consisted of 65,000 compounds. […] Controls included an “artifact” plate on which a GAPDH assay was performed to check selectivity, and a solubility plate on which a solubility assay was performed to test solubility.
# [7] = tested on: anti-apoptotic members of the Bcl-2-family; assay: FPA competition assay, GST-Bcl-2 fusion proteins with FITC-Bid BH3 peptide in PBS; assay type: binding, human; conditions: 100 nM GST-fusion proteins, 5 nM FITC-Bid BH3 peptide
# Procedure: Bcl-2-binding compounds were tested by competition assay analysis. The green tea compound […] (EGCG) has been reported to bind Bcl-2 and Bcl-XL (Leone et al., Cancer Res 63:8118-8121 (2003)). The ability of EGCG to compete with fluorochrome-labeled BH3 peptides was confirmed by FPA. 100 nM of GST-Bcl-2 fusion proteins were incubated with various concentrations of EGCG or control compound ECG (“C”) for 2 min in PBS buffer in 50 uL. Next, 5 nM FITC-conjugated-Bid BH3 peptide was added, bringing final volume to 100 uL and final DMSO concentration to 1%. Fluorescence polarization was measured after 20 min. […] This compound therefore can serve as a positive control when performing high throughput screens of a chemical library.
# [8] = Tables 7-8, Avg where the cell lists several determinations, read-out: Bfl-1 FPA IC50
# [9] = Tables 3-5, read-out: Bfl-1 TR FRET IC50
# [10] = Tables 7-8, Avg where the cell lists several determinations, read-out: Bfl-1 TR-FRET IC50
# T2 sequence (P10415 1-218 limits assumed): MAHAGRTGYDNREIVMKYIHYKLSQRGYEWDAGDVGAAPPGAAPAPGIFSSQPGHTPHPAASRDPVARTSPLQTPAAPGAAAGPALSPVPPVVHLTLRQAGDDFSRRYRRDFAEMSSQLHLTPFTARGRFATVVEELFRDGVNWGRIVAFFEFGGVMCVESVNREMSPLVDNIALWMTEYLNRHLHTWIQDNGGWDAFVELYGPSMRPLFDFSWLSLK
smiles,measurement,setting,value
COc1ccc(-c2cc(C(F)(F)F)nc(S(C)(=O)=O)n2)cc1OC [Compound 11],induction of apoptosis,[1],induction of apoptosis
CCOC(=O)CS(=O)(=O)c1nc(-c2ccccc2)cc(C(F)(F)F)n1 [Compound 3],induction of apoptosis,[1],induction of apoptosis
"CN1CCN(C2=C(Cl)C(=O)N(c3ccc(Cl)c(Cl)c3)C2=O)CC1 [CID-1180676, 3-chloro-1-(3,4-dichlorophenyl)-4-(4-methylpiperazin-1-yl)pyrrole-2,5-dione]","Bfl-1 FP assay, activity in words",[2],submicromolar potency; also recorded: potently disrupt
same,pIC50,"[2]; Tables 3-5, read-out: Bfl-1 FP IC50",6.12
same,pIC50,[2]; [8],6.21
same,"Bfl-1 TR-FRET assay, activity in words",[3],submicromolar potency; also recorded: potently disrupt
same,pIC50,[3]; [9],6.25
same,pIC50,[3]; [10],6.32
same,"Bfl-1 TR-FRET IC50 (uM), individual determinations","[3]; Tables 7-8, single values listed before the Avg",nofit
same,IC50,"[3]; Tables 7-8, single values listed before the Avg, read-out: Bfl-1 TR-FRET IC50 (uM), individual determinations",0.304 µM and 0.443 µM and 0.317 µM and 0.471 µM and 0.445 µM and 1.09 µM and 0.475 µM and 0.584 µM and 0.186 µM
same,"Competition for binding of a BH3 peptide to Bcl-2, in words",[4]; Bcl-2/FITC-Bim complex,limited activity
same,"Effect on complex of Bcl-B/FITC-TR3-R8, in words",[5],did not affect
O=C1C(Cl)=C(N2CCN(CCOCCO)CC2)C(=O)N1c1ccc(Cl)c(Cl)c1 [MLS-0090861],pIC50,"[2]; text b268, assay not stated (equals FP value of Table 5), read-out: IC50",6.33
same,pIC50,[3]; [9],6.38
same,aqueous solubility compared with CID-1180676,[6],enhanced aqueous solubility
"CC(C)C(C(=O)O)N1C(=O)/C(=C/c2ccc(Br)cc2)SC1=S (centres unmarked) [BH3I-1, (Z)-2-(5-(4-Bromobenzylidene)-4-oxo-2-thioxothiazolidin-3-yl)-3-methylbutanoic acid, reference compound]",pIC50,"[2]; conditions not stated, not the assay with 0.005% Tween 20, read-out: Bfl-1 (FP): IC50",5.33
same,pIC50,"[2]; in the presence of 0.005% Tween 20, read-out: IC50 in Bfl-1 FP assay",< 4.70
same,pIC50,[4]; read-out: Bcl-2 (FP): IC50,5.94
same,pIC50,[5]; read-out: Bcl-B (FP): IC50,5.97
CCOC(=O)CS(=O)(=O)c1nc(-c2ccc(F)cc2)cc(C(F)(F)F)n1 [Compound 9],induction of apoptosis,[1],induction of apoptosis
"O=C(O[C@@H]1Cc2c(O)cc(O)cc2O[C@@H]1c1cc(O)c(O)c(O)c1)c1cc(O)c(O)c(O)c1 [ECGC, epigallecatechin]",binding to anti-apoptotic Bcl-2-family members,[7],binds to all six anti-apoptotic members of the Bcl-2-family
COc1ccc(-c2cc(N)n(S(=O)(=O)c3c(F)c(F)c(F)c(F)c3F)n2)cc1OC [Compound 10],induction of apoptosis,[1],induction of apoptosis
CN1CCN(C2=CC(=O)N(c3ccc(Cl)cc3)C2=O)CC1 [MLS-0066987],"Bfl-1 FP assay, activity in words",[2],inactive
same,"Bfl-1 TR-FRET assay, activity in words",[3],inactive
Cc1cc(NC(=O)CCCS(=O)(=O)c2nc(-c3cccs3)cc(C(F)(F)F)n2)no1 [Compound C071-0649],pIC50,[2]; [8],4.39
same,pIC50,[3]; [10],4.94
